Test results: ChEMBL document CHEMBL3887002, “Biaryl ether sulfonamides and their use as therapeutic agents” (2016)

Molecular target: Sodium channel protein type 9 subunit alpha (Homo sapiens, UniProt Q15858)
Test: Electrophysiological Assay (In vitro Assay): Patch voltage clamp electrophysiology allows for the direct measurement and quantification of block of voltage-gated sodium channels (Nav's), and allows the determination of the time- and voltage-dependence of block which has been interpreted as differential binding to the resting, open, and inactivated states of the sodium channel (Hille, B., Journal of General Physiology (1977), 69: 497-515).The following patch voltage clamp electrophysiology studies were performed on representative compounds of the invention using human embryonic kidney cells (HEK), permanently transfected with an expression vector containing the full-length cDNA coding for the desired human sodium channel α-subunit, grown in culture media containing 10% FBS, 1% PSG, and 0.5 mg/mL G418 at 37° C. with 5% CO2. […] Nav1.7 and Nav1.5 cDNAs (NM_00297
Format: cell-based, HEK293

Sodium channel protein type 9 subunit alpha, sequence (Q15858 whole entry): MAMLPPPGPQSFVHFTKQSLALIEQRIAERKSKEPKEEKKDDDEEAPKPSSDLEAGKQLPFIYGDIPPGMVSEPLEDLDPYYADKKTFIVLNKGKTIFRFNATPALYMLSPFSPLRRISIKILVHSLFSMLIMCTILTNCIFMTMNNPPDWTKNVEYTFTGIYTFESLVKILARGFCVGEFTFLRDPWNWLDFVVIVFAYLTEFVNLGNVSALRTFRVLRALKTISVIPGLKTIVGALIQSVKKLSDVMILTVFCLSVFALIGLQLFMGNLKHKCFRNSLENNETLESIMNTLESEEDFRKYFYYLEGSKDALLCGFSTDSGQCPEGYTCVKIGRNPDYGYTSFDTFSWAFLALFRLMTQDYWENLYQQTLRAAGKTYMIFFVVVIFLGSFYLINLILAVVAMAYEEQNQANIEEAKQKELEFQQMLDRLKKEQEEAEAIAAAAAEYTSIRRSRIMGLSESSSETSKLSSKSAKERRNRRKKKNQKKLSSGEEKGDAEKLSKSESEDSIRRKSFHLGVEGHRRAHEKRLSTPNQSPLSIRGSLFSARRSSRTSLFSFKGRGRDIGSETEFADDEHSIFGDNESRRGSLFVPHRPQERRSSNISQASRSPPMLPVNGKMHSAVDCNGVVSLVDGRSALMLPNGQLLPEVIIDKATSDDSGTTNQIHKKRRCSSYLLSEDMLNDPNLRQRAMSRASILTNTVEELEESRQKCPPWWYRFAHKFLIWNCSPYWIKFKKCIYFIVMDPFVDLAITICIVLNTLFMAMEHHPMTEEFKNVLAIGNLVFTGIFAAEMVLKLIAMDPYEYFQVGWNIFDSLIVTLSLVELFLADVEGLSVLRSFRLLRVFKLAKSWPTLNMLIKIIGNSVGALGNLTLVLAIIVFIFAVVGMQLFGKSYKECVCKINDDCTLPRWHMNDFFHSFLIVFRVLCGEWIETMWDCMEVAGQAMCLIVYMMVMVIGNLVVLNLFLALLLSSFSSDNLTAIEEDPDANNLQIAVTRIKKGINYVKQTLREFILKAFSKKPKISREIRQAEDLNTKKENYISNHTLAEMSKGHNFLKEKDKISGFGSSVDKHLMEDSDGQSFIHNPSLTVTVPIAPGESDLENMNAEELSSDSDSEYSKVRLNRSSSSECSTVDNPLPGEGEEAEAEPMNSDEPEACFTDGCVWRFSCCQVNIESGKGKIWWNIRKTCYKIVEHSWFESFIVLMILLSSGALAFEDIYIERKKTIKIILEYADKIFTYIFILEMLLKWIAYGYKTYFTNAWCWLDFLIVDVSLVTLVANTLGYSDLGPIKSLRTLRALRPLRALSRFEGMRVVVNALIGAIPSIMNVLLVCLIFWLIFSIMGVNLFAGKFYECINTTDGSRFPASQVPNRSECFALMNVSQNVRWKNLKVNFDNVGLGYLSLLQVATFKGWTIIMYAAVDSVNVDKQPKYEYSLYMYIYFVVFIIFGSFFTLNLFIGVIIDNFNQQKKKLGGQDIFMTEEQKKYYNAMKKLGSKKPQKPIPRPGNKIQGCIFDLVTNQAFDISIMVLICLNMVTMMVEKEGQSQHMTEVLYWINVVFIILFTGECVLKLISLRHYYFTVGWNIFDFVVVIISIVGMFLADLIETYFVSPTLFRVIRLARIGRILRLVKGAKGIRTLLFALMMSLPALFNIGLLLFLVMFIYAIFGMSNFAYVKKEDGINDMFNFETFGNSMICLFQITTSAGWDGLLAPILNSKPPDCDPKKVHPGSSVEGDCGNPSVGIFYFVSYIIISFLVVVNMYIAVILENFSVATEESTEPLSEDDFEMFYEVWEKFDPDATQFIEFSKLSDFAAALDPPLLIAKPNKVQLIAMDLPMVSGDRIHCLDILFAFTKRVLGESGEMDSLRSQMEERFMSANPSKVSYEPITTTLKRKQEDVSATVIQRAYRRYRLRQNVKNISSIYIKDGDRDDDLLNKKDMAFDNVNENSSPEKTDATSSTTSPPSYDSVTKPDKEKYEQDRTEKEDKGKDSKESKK

Compound `O=S(=O)(Nc1ncccc1F)c1cc(F)c(Oc2ccc(Cl)cc2-c2cccc3nccn23)cc1F` has an IC50 of 23.2 nM.
